Source: the kinase profiling compilation of Christmann-Franck et al. (2016)

Assays:
Test in all cases: radiometric filter-binding kinase assay, Kinase HotSpot
Settings in all cases: compound 0.5 µM; ATP 10 µM
PRKCD (human) = PRKCD (human) (UniProt Q05655)
MAP4K4 (human) = MAP4K4 (human) (UniProt O95819)
MAPKAPK3 (human) = MAPKAPK3 (human) (UniProt Q16644)
PKN2 (human) = PKN2 (human) (UniProt Q16513)
MAPK13 (human) = MAPK13 (human) (UniProt O15264)
MATK (human) = MATK (human) (UniProt P42679)
EPHB2 (human) = EPHB2 (human) (UniProt P29323)
PRKCE (human) = PRKCE (human) (UniProt Q02156)
PRKACA (human) = PRKACA (human) (UniProt P17612)
PRKCI (human) = PRKCI (human) (UniProt P41743)
PRKG2 (human) = PRKG2 (human) (UniProt Q13237)
[1] = molecular target: TYK2 JH1 catalytic (human) (UniProt P29597)
PLK3 (human) = PLK3 (human) (UniProt Q9H4B4)
PDGFRB (human) = PDGFRB (human) (UniProt P09619)
ITK (human) = ITK (human) (UniProt Q08881)
AURKB (human) = AURKB (human) (UniProt Q96GD4)
IRAK4 (human) = IRAK4 (human) (UniProt Q9NWZ3)
HIPK1 (human) = HIPK1 (human) (UniProt Q86Z02)
MAPK9 (human) = MAPK9 (human) (UniProt P45984)
CLK2 (human) = CLK2 (human) (UniProt P49760)
RIPK2 (human) = RIPK2 (human) (UniProt O43353)
YES1 (human) = YES1 (human) (UniProt P07947)
FGFR3 (human) = FGFR3 (human) (UniProt P22607)
FLT3 (human) = FLT3 (human) (UniProt P36888)
GSK3A (human) = GSK3A (human) (UniProt P49840)
AURKA (human) = AURKA (human) (UniProt O14965)
KIT (human) = KIT (human) (UniProt P10721)
GRK5 (human) = GRK5 (human) (UniProt P34947)
PRKD2 (human) = PRKD2 (human) (UniProt Q9BZL6)
CSNK1D (human) = CSNK1D (human) (UniProt P48730)
SGK2 (human) = SGK2 (human) (UniProt Q9HBY8)
FYN (human) = FYN (human) (UniProt P06241)
MELK (human) = MELK (human) (UniProt Q14680)
FGFR2 (human) = FGFR2 (human) (UniProt P21802)
MAPK8 (human) = MAPK8 (human) (UniProt P45983)
MAPKAPK2 (human) = MAPKAPK2 (human) (UniProt P49137)
PKN1 (human) = PKN1 (human) (UniProt Q16512)
ERBB4 (human) = ERBB4 (human) (UniProt Q15303)
DAPK2 (human) = DAPK2 (human) (UniProt Q9UIK4)
MERTK (human) = MERTK (human) (UniProt Q12866)
SRPK2 (human) = SRPK2 (human) (UniProt P78362)
NEK3 (human) = NEK3 (human) (UniProt P51956)

Sequence of CSNK1D (human) (P48730 whole entry, looked up): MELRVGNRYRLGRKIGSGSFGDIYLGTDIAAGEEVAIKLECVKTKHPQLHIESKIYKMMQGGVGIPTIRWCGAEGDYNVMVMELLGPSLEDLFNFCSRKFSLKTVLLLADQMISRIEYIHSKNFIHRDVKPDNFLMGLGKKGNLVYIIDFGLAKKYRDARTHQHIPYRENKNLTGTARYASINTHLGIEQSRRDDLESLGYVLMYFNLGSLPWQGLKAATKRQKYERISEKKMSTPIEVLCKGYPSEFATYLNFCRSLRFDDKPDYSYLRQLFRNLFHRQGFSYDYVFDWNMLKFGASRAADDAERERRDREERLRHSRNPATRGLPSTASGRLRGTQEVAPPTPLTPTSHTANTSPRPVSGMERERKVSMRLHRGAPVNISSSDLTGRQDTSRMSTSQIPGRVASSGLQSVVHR
Sequence of ITK (human) (Q08881 whole entry, looked up): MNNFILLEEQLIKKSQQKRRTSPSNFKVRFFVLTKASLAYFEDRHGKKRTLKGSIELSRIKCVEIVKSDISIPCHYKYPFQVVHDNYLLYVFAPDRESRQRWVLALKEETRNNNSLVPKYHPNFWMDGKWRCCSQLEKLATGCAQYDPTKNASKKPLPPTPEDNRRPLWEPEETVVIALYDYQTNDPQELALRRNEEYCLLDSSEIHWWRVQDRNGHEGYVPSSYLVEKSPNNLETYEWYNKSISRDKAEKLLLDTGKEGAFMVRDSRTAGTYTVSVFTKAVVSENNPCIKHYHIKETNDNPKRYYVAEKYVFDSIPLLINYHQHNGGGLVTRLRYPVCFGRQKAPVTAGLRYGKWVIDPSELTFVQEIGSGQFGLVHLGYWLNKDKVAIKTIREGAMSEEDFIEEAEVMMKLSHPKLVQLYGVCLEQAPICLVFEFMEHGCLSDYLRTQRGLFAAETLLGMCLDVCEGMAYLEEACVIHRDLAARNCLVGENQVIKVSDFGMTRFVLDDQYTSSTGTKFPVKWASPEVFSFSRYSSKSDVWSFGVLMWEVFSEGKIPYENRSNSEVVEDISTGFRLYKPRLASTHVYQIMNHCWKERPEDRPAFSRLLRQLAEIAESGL
Sequence of CLK2 (human) (P49760 whole entry, looked up): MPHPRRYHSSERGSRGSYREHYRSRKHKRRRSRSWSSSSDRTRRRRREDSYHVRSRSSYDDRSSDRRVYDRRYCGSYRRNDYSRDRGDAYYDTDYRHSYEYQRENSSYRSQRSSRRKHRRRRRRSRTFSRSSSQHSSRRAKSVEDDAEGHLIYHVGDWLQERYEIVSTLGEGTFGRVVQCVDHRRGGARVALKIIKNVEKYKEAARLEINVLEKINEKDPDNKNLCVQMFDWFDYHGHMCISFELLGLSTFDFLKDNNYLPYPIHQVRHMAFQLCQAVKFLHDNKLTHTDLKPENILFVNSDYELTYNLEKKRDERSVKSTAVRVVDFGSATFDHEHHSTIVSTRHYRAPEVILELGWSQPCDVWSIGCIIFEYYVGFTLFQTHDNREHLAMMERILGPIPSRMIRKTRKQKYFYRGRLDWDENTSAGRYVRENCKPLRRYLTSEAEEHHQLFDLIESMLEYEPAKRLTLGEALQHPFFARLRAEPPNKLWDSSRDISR
Sequence of MERTK (human) (Q12866 whole entry, looked up): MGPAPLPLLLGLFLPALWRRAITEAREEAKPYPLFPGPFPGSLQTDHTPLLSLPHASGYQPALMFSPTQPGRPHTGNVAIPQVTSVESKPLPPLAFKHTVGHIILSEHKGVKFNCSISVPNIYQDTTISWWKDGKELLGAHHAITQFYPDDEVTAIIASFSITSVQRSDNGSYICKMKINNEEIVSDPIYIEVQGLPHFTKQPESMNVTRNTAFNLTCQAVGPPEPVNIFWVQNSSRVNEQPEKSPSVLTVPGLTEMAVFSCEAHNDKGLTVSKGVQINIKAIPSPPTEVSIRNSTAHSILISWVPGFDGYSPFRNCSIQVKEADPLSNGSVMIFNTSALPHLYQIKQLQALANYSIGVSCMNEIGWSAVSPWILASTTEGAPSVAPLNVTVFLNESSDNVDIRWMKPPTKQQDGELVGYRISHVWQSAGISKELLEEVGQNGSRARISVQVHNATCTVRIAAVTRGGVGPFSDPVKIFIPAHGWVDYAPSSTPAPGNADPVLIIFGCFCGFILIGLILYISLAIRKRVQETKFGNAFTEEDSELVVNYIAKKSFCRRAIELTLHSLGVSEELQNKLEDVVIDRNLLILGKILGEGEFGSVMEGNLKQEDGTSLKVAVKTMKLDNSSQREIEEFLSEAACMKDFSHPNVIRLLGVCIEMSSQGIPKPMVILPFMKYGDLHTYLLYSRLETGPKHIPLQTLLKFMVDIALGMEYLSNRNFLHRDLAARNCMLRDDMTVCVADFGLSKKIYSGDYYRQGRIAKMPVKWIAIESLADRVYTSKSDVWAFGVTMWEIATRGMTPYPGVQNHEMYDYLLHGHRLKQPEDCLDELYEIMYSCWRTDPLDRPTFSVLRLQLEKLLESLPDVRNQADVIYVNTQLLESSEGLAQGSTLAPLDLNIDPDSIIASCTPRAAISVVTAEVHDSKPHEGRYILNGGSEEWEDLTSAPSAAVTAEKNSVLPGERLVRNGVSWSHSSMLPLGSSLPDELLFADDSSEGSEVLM
Sequence of PRKG2 (human) (Q13237 whole entry, looked up): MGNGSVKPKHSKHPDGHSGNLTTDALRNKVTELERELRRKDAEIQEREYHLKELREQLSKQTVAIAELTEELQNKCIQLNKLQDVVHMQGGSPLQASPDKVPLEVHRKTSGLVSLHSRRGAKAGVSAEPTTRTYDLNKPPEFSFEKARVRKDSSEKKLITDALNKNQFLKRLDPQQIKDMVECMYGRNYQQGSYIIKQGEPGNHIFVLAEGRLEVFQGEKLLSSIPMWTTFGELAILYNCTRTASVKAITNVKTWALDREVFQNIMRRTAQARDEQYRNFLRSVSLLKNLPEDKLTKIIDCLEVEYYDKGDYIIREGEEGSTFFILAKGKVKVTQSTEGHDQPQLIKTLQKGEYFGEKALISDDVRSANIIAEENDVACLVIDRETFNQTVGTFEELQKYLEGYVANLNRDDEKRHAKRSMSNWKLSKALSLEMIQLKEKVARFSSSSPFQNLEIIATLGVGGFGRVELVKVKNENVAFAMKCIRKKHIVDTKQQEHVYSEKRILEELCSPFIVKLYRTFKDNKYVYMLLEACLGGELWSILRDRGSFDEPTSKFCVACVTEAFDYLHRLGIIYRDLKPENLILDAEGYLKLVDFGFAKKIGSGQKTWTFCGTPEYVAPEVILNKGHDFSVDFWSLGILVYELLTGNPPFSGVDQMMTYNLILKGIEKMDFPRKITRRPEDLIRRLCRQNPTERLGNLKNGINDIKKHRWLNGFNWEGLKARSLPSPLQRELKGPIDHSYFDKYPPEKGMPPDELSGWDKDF
Sequence of GRK5 (human) (P34947 whole entry, looked up): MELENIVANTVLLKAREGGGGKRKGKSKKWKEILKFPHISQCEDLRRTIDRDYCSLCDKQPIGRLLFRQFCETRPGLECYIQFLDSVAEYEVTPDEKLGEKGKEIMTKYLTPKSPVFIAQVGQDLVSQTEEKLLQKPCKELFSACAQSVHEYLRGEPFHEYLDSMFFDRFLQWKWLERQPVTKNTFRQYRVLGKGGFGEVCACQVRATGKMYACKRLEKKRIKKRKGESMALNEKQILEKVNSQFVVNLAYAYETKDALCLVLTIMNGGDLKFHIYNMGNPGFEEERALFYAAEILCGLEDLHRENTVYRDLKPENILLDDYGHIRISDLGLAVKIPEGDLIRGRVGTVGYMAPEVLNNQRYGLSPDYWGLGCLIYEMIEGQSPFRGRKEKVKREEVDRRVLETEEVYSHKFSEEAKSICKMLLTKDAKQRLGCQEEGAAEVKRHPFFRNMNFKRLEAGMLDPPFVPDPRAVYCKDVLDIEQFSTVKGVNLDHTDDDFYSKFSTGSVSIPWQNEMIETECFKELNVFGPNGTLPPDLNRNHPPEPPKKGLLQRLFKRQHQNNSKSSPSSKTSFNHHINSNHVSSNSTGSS
Sequence of PRKCE (human) (Q02156 whole entry, looked up): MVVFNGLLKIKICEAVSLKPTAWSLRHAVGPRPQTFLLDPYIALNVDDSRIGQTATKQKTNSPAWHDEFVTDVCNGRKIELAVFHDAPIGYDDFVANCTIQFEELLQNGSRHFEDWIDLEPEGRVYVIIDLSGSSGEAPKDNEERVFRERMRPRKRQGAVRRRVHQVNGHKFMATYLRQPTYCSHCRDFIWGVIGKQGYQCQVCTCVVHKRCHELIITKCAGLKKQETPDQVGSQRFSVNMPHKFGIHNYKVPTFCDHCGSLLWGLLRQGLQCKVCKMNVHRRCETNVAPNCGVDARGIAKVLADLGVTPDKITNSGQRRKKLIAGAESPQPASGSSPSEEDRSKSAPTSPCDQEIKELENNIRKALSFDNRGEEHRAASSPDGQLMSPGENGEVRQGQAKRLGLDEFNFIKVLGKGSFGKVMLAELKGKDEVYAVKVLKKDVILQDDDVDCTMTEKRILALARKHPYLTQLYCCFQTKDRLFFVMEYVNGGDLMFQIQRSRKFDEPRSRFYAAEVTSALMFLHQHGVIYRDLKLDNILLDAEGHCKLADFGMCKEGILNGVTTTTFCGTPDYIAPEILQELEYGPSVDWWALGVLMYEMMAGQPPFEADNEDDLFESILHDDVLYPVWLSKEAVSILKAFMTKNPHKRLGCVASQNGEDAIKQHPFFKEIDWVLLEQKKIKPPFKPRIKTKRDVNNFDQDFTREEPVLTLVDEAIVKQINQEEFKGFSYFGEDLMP
Sequence of MAPK9 (human) (P45984 whole entry, looked up): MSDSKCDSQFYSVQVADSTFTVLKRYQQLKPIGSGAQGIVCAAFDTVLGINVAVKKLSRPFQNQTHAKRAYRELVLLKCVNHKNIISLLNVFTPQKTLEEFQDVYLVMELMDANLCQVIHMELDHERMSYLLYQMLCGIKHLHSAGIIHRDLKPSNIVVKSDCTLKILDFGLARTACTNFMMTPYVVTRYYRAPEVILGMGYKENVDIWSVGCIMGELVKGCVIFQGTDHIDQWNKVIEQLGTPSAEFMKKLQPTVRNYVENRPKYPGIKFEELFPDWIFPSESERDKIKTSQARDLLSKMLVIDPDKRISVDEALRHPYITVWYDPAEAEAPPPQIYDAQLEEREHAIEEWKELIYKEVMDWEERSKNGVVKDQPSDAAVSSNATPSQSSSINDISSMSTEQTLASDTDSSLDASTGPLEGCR

With `O=C(c1ccccc1)c1ccc(N2CCOCC2)cc1O` the residual activity (PRKCD (human)) was 98.8%, the residual activity (MAP4K4 (human)) was 86.4% and the residual activity (MAPKAPK3 (human)) was 106%. It also gave a residual activity (PKN2 (human)) of 96.8%, a residual activity (MAPK13 (human)) of 106% and a residual activity (MATK (human)) of 92.5%. The residual activity (EPHB2 (human)) was 94.9%, the residual activity (PRKCE (human)) was 92.3% and the residual activity (PRKACA (human)) was 98.3%. For the same compound, the residual activity (PRKCI (human)) was 98.3%, the residual activity (PRKG2 (human)) was 102% and the residual activity [1] was 110%. For the same compound, the residual activity (PLK3 (human)) was 99.1%, the residual activity (PDGFRB (human)) was 96.5% and the residual activity (ITK (human)) was 99.5%. For the same compound, the residual activity (AURKB (human)) was 95.5%, the residual activity (IRAK4 (human)) was 108% and the residual activity (HIPK1 (human)) was 104%. It also gave a residual activity (MAPK9 (human)) of 98.9%, a residual activity (CLK2 (human)) of 106% and a residual activity (RIPK2 (human)) of 95%. The residual activity (YES1 (human)) was 103%, the residual activity (FGFR3 (human)) was 104% and the residual activity (FLT3 (human)) was 90.6%. For the same compound, the residual activity (GSK3A (human)) was 102%, the residual activity (AURKA (human)) was 108% and the residual activity (KIT (human)) was 96.2%. For the same compound, the residual activity (GRK5 (human)) was 105%, the residual activity (PRKD2 (human)) was 99.1% and the residual activity (CSNK1D (human)) was 100%. For the same compound, the residual activity (SGK2 (human)) was 105%, the residual activity (FYN (human)) was 106% and the residual activity (MELK (human)) was 103%. It also gave a residual activity (FGFR2 (human)) of 99.1%, a residual activity (MAPK8 (human)) of 99.5% and a residual activity (MAPKAPK2 (human)) of 102%. The residual activity (PKN1 (human)) was 104%, the residual activity (ERBB4 (human)) was 102% and the residual activity (DAPK2 (human)) was 102%. The residual activity (MERTK (human)) was 94.5%, the residual activity (SRPK2 (human)) was 102% and the residual activity (NEK3 (human)) was 95.6%.
